SMILES strings stand for the structures.

For one series, the target named is human 5-HT2A receptor (Homo sapiens (Human), UniProt P28223). Kind of series: Radioligand binding ([3H]-ketanserin) to human 5-HT2A receptor, HEK293 EBNA membranes. The note with it: HEK293 EBNA cells expressing human 5-HT2A receptor. How it is done: The ability of the compounds to bind to the 5-HT2A, D3 and D2 receptors was determined using radioligand binding to cloned receptors selectively expressed in HEK-293 EBNA cells.
Sequence of human 5-HT2A receptor (P28223 whole entry): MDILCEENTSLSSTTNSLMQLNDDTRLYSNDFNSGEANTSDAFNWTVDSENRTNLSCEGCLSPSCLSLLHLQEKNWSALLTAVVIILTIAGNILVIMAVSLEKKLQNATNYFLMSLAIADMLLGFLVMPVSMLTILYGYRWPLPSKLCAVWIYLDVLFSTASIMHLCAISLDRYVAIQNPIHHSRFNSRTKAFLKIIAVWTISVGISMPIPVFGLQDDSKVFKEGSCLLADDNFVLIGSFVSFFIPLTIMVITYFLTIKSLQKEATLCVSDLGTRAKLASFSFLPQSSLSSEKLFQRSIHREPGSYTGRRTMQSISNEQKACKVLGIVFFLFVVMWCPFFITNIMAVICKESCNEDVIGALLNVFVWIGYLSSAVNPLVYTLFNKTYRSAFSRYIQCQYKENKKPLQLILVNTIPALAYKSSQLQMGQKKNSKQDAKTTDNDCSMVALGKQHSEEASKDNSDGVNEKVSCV
(§1) HEK293 EBNA cells were transiently transfected with expression plasmids encoding for the human D2 or D3 or for the human 5-HT2A receptor, respectively. The cells were harvested 48 h post-transfection, washed three times with cold PBS and stored at −80° C. prior to use. The pellet was suspended in cold 50 mM Tris-HCl buffer containing 10 mM EDTA (pH 7.4) and was homogenized with a Polytron (Kinematica AG, Basel, Switzerland) for 20-30 sec at 12.000 rpm. After centrifugation at 48.000×g for 30 min at 4° C., the pellet was resuspended in cold 10 mM Tris-HCl buffer containing 0.1 mM EDTA (pH 7.4), homogenized, and centrifuged as above. This pellet was further resuspended in a smaller volume of ice cold 10 mM Tris-HCl buffer containing 0.1 mM EDTA (pH 7.4) and homogenized with a Polytron for 20-30 sec at 12.000 rpm. The protein content of this homogenate was determined with the Bio-Rad (Bradford) Protein Assay (Biorad Laboratories GmbH, München, Germany) according to the instructions of the manufacturer using gamma globulin as the standard. This homogenate was stored at −80° C. in aliquots and thawed immediately prior to use.
(§2) Aliquots of membrane preparations were thawed at RT, resuspended in assay buffer (D2, D3: 50 mM Tris-HCl, 120 mM NaCl, 5 mM MgCl2, 1 mM EDTA, 5 mM KCl, 1.5 mM CaCl2, pH=7.4; 5-HT2A: 50 mM Tris-HCl, 10 mM MgCl2, 1 mM EGTA, pH=7.4), homogenized with a Polytron for 20-30 sec at 12.000 rpm and adjusted to a final concentration of approximately 7.5 μg protein/well (D2, D3) and 15 μg protein/well (5-HT2A), respectively.
(§3) The binding affinity (Ki) of the compounds was determined using radioligand binding.
(§4) Membranes were incubated in a total volume of 200 μl with a fixed concentration of radioligand (final concentration approximately 0.7 nM [^3H]-spiperone for D2, 0.5 nM [^3 H]-spiperone for D3, and 1.1 nM [^3H]-ketanserin for 5-HT2A) and ten concentrations of test compound in ranging between 10 μM-0.1 nM for 1 h at RT. At the end of the incubation, the reaction mixtures were filtered on to unifilter 96-well white microplates with bonded GF/C filters (Packard BioScience, Zürich, Switzerland; preincubated for 1 h in 0.1% polyethylenimine (PEI) in assay buffer) with a Filtermate 196 harvester (Packard BioScience) and washed 3 times with cold assay buffer. The nonspecific binding was determined with equally composed reaction mixtures in the presence of 10 μM unlabelled spiperone. Per well 45 μl of Microscint 40 (Perkin Elmer, Schwerzenbach, Switzerland) was added, plates for sealed, shaken for 20 min and counted for 3 min on a Topcount Microplate Scintillation Counter (Canberra Packard SA, Zürich, Switzerland) with quenching correction.
(§5) The CPM value for each duplicate of a concentration of competing compound was averaged (y1), then the % specific binding was calculated according to the equation (((y1−non-specific)/(total binding−non-specific))×100). Graphs were plotted with the % specific binding using XLfit, a curve-fitting program that iteratively plots the data using Levenberg-Marquardt algorithm. The single site competition analysis equation used was y=A+((B−A)/(1+((x/C)D))), where y is the % specific binding, A is the minimum y, B is the maximum y, C is the IC50, x is the log 10 of the concentration of the competing compound and D is the slope of the curve (the Hill Coefficient). From these curves the IC50 (inhibition concentration at which 50% specific binding of the radioligand was displaced) and Hill coefficient were determined. The affinity constant (Ki) was calculated using the Cheng-Prusoff equation Ki=(IC50/1+([L]/Kd), where [L] is the concentration of radioligand and Kd is the dissociation constant of the radioligand at the receptor as determined by the saturation isotherm.

In a further series the target is human D2 receptor (Homo sapiens (Human), UniProt P14416). Nature of the series: Radioligand binding ([3H]-spiperone) to human D2 receptor, HEK293 EBNA membranes. The note with it: HEK293 EBNA cells expressing human D2 receptor. The protocol:
as §1, §2, §3, §4, §5

The next series has as its target human D3 receptor (Homo sapiens (Human), UniProt P35462). Kind of series: Radioligand binding ([3H]-spiperone) to human D3 receptor, HEK293 EBNA membranes. To be noted: HEK293 EBNA cells expressing human D3 receptor. How it is done: as §1, §2, §3, §4, §5

Sequence of human D3 receptor (P35462 whole entry): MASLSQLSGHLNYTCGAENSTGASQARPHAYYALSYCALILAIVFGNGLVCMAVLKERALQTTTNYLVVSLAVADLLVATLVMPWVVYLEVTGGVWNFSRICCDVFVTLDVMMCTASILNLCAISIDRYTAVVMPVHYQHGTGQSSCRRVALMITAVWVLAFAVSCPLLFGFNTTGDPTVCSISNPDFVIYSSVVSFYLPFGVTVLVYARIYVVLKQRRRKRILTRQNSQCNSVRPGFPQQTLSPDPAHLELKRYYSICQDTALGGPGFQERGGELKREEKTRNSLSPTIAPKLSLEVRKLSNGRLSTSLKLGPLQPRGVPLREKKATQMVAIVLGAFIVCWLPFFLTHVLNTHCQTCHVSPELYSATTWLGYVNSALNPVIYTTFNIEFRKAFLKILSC
Sequence of human D2 receptor (P14416 whole entry): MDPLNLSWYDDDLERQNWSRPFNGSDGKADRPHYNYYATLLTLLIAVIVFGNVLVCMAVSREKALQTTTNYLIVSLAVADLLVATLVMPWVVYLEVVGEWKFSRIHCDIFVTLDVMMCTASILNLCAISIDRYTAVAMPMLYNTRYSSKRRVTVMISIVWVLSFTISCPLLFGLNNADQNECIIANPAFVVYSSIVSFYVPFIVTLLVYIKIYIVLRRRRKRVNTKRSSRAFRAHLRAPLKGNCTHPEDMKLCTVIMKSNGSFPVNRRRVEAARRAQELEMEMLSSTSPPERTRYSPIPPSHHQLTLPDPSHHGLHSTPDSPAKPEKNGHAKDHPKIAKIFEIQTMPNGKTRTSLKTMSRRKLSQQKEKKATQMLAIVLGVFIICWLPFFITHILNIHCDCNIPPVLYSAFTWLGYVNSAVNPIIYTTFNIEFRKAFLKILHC

The Ki is a measure of affinity in units of concentration, obtained from inhibition or displacement. For orientation: melting point means the temperature of the solid-liquid transition. With `O=C(C[C@@H](O)C(F)(F)F)N[C@H]1CC[C@H](CCN2CCC(c3coc4ccccc34)CC2)CC1` [Example 35, trans-N-{4-[2-(4-Benzofuran-3-yl-piperidin-1-yl)-ethyl]-cyclohexyl}-(R)-4,4,4-trifluoro-3-hydroxy-butyramide], the melting point was 166 °C. Also, the inhibitory constant (Ki) at human 5-HT2A receptor amounted to 9.69 nM. For the same molecule, at human D2 receptor, the inhibition constant Ki came to 50.4 nM. At human D3 receptor, the inhibitory constant (Ki) amounted to 2.29 nM.
On to `CS(=O)(=O)N[C@H]1CC[C@H](CCN2CCC(c3coc4ccccc34)CC2)CC1` [Example 36, trans-N-{4-[2-(4-Benzofuran-3-yl-piperidin-1-yl)-ethyl]-cyclohexyl}-methanesulfonamide], for which the melting point came out at 142 °C. Moreover, the inhibitory constant (Ki) on human 5-HT2A receptor was found to be 5.43 nM. The inhibitory constant (Ki) at human D2 receptor came to 47.4 nM. For the same molecule, at human D3 receptor, the Ki is 2.85 nM.
`CCS(=O)(=O)N[C@H]1CC[C@H](CCN2CCC(c3coc4ccccc34)CC2)CC1` [Example 37, Ethanesulfonic acid trans-{4-[2-(4-benzofuran-3-yl-piperidin-1-yl)-ethyl]-cyclohexyl}-amide]: the melting point is 153 °C. In addition, the Ki on human 5-HT2A receptor turned out to be 5.07 nM. Besides, at human D2 receptor, the inhibition constant Ki is 48 nM. Moreover, the Ki on human D3 receptor was 2.87 nM.
On the same counts, the results for `Cc1ccc(S(=O)(=O)N[C@H]2CC[C@H](CCN3CCC(c4coc5ccccc45)CC3)CC2)cc1` [Example 38, trans-N-{4-[2-(4-Benzofuran-3-yl-piperidin-1-yl)-ethyl]-cyclohexyl}-4-methyl-benzenesulfonamide] are 149 °C, 41.5 nM, 58.6 nM and 6.24 nM.
In the case of `O=C(N[C@H]1CC[C@H](CCN2CCC(c3coc4ccccc34)CC2)CC1)C(F)(F)F` [Example 39, trans-N-{4-[2-(4-Benzofuran-3-yl-piperidin-1-yl)-ethyl]-cyclohexyl}-2,2,2-trifluoro-acetamide], the melting point was found to be 152 °C. Also, the Ki on human 5-HT2A receptor was found to be 8.62 nM. Further, the inhibitory constant (Ki) on human D2 receptor was found to be 37.5 nM. At human D3 receptor, the inhibition constant Ki was found to be 4.08 nM.
The matching figures for `CC(C)(C)CC(=O)N[C@H]1CC[C@H](CCN2CCC(c3coc4ccccc34)CC2)CC1` [Example 40, trans-N-{4-[2-(4-Benzofuran-3-yl-piperidin-1-yl)-ethyl]-cyclohexyl}-3,3-dimethyl-butyramide]: 174 °C, 10.4 nM, 53 nM and 4.35 nM.
On the same counts, the results for `Cc1cc(C(=O)N[C@H]2CC[C@H](CCN3CCC(c4coc5ccccc45)CC3)CC2)on1` [Example 41, 3-Methyl-isoxazole-5-carboxylic acid trans-{4-[2-(4-benzofuran-3-yl-piperidin-1-yl)-ethyl]-cyclohexyl}-amide] are 178 °C, 9.21 nM, 36.4 nM and 4.23 nM.
On the same counts, the results for `CN(C)C(=O)CCC(=O)N[C@H]1CC[C@H](CCN2CCC(c3coc4ccccc34)CC2)CC1` [Example 42, trans-N-{4-[2-(4-Benzofuran-3-yl-piperidin-1-yl)-ethyl]-cyclohexyl}-N′,N′-dimethyl-succinamide] are 167 °C, 7.8 nM, 92.3 nM and 2.43 nM.
Regarding `CN(C)S(=O)(=O)N[C@H]1CC[C@H](CCN2CCC(c3coc4ccccc34)CC2)CC1` [Example 43, N′-(trans-4-{2-[4-(benzofuran-3-yl)-piperidin-1-yl]-ethyl}-cyclohexyl)-N,N-dimethylsulfamide], the melting point was 229 °C. Moreover, the Ki on human 5-HT2A receptor came to 4.41 nM. The inhibitory constant (Ki) at human D2 receptor turned out to be 47 nM. Besides, the inhibition constant Ki on human D3 receptor is 3.02 nM.
For the molecule `O=C(CCC(F)(F)F)N[C@H]1CC[C@H](CCN2CCC(c3coc4ccccc34)CC2)CC1` [Example 44, trans-N-{4-[2-(4-Benzofuran-3-yl-piperidin-1-yl)-ethyl]-cyclohexyl}-4,4,4-trifluoro-butyramide], the melting point was determined as 192 °C. Further, the inhibitory constant (Ki) at human 5-HT2A receptor was 15 nM. The Ki on human D2 receptor worked out at 61.2 nM. For the same molecule, on human D3 receptor, the inhibition constant (Ki) turned out to be 2.94 nM.
Molecule `CC(C)CCC(=O)N[C@H]1CC[C@H](CCN2CCC(c3coc4ccccc34)CC2)CC1` [Example 45, 4-Methyl-pentanoic acid trans-{4-[2-(4-benzofuran-3-yl-piperidin-1-yl)-ethyl]-cyclohexyl}-amide] came in with a melting point of 179 °C. For the same molecule, at human 5-HT2A receptor, the Ki stood at 13.1 nM. On human D2 receptor, the inhibition constant Ki was 66 nM. Further, the inhibition constant Ki at human D3 receptor worked out at 2.9 nM.
As for `CC[C@@H](O)CC(=O)N[C@H]1CC[C@H](CCN2CCC(c3coc4ccccc34)CC2)CC1` [Example 46, (R)-3-Hydroxy-pentanoic acid trans-{4-[2-(4-benzofuran-3-yl-piperidin-1-yl)-ethyl]-cyclohexyl}-amide], the melting point amounted to 142 °C. The Ki on human 5-HT2A receptor was 8.7 nM. For the same molecule, the Ki at human D2 receptor stood at 55.4 nM. The Ki at human D3 receptor was determined as 2.49 nM.
`CC[C@H](O)CC(=O)N[C@H]1CC[C@H](CCN2CCC(c3coc4ccccc34)CC2)CC1` [Example 47, (S)-3-Hydroxy-pentanoic acid trans-{4-[2-(4-benzofuran-3-yl-piperidin-1-yl)-ethyl]-cyclohexyl}-amide]: the melting point worked out at 140 °C. Moreover, the inhibition constant (Ki) on human 5-HT2A receptor worked out at 9.1 nM. Besides, at human D2 receptor, the Ki turned out to be 33.8 nM. Also, the Ki on human D3 receptor was 2.25 nM.
`O=C(CC1CCC1)N[C@H]1CC[C@H](CCN2CCC(c3coc4ccccc34)CC2)CC1` [Example 48, trans-N-{4-[2-(4-Benzofuran-3-yl-piperidin-1-yl)-ethyl]-cyclohexyl}-2-cyclobutyl-acetamide] returned a melting point of 173 °C. Moreover, the Ki at human 5-HT2A receptor came out at 4.94 nM. Moreover, at human D2 receptor, the inhibition constant (Ki) turned out to be 58.2 nM. Besides, the inhibition constant (Ki) at human D3 receptor came to 2.05 nM.
As to `O=C(N[C@H]1CC[C@H](CCN2CCC(c3coc4ccccc34)CC2)CC1)c1ccc(Cl)cc1` [Example 49, trans-N-{4-[2-(4-Benzofuran-3-yl-piperidin-1-yl)-ethyl]-cyclohexyl}-4-chloro-benzamide], the melting point turned out to be 203 °C. Further, the inhibitory constant (Ki) on human 5-HT2A receptor turned out to be 9.01 nM. Further, on human D2 receptor, the inhibition constant (Ki) turned out to be 25.8 nM. For the same molecule, the inhibition constant (Ki) at human D3 receptor was 3.22 nM.
In turn, `O=C(N[C@H]1CC[C@H](CCN2CCC(c3coc4ccccc34)CC2)CC1)c1ccc(C(F)(F)F)cc1` [Example 50, trans-N-{4-[2-(4-Benzofuran-3-yl-piperidin-1-yl)-ethyl]-cyclohexyl}-4-trifluoromethyl-benzamide] showed a melting point of 218 °C. For the same molecule, the Ki at human 5-HT2A receptor was 4.75 nM. Moreover, the inhibitory constant (Ki) at human D2 receptor was 152 nM. For the same molecule, the inhibitory constant (Ki) on human D3 receptor was 2.21 nM.
The matching figures for `O=C(N[C@H]1CC[C@H](CCN2CCC(c3coc4ccccc34)CC2)CC1)c1ccc(N2CCCCC2)cc1` [Example 51, trans-N-{4-[2-(4-Benzofuran-3-yl-piperidin-1-yl)-ethyl]-cyclohexyl}-4-piperidin-1-yl-benzamide]: 221 °C, 6.85 nM, 345 nM and 4.39 nM.

The values are drawn from patent publication US8921397B2, “Benzofurane-piperidine compounds” (Hoffmann-La Roche Inc., priority 2011, dated 2014).
